# Test results from patent publication US10501413B2, “Inhibitors of the Notch transcriptional activation complex and methods for use of the same” (UNIVERSITY OF MIAMI, priority 2015, dated 2019).
# Experiments:
# [1] = system: MAML1 and Notch1 occupancy on HES1 promoter in OE33 and 786-0 cells; test: Chromatin immunoprecipitation (ChIP) on the HES1 locus; format: cell-based, human; details: 24 hours
# Description: The effect of inhibitor treatment on the assembly of the NTC in cells was investigated.
# Cells (8×10^6 OE33 cells or 10×10^6 786-0 cells) were plated onto a 15 cm tissue culture dish a day prior to treatment. Cells were then treated for 24 hours with (N—[N-(3,5-difluorophenacetyl)-L-alanyl]-S-phenylglycine t-butyl ester (“DAPT”, 5 μM), Inhibitor No. 1-134-83 (25 μM), or DMSO vehicle. Following treatment, cells were cross-linked for 10 minutes with 1% formaldehyde. The reaction was then stopped by adding […] glycine. Cells were collected in SDS lysis buffer (1% SDS, 10 mM EDTA, 50 mM Tris-HCl pH 8.0) and sonicated to yield chromatin fragments of approximately 300 to 800 bp (8 minutes at high level for OE33 cells; 5 minutes at medium level for 786-0 cells in BIORUPTOR UCD-200 sonicator). Lysates were divided into equal parts and immunoprecipitated with either α-Notch1 (A301-894A, Bethyl Laboratories) or α-MAML1 (12166s, Cell Signaling Technology) antibody. Protein:DNA immunoprecipitates were then reverse cross-linked at 65° C. in 200 mM NaCl for 4 hours, followed by incubation with RNase A and proteinase K. DNA was then purified using a PCR purification kit (28104,
# Qiagen). Immunoprecipitated DNA was then detected by SYBR green qPCR using HES1 specific oligonucleotide primers (forward: 5′CGTGTCTCCTCCTCCCATT3′; reverse: 5′GGGGGATTCCGCTGTTAT3′).
# [2] = system: Notch target gene transcription; test: RT-qPCR of Notch target genes in cancer cell lines; format: cell-based, human
# Description: The effect of inhibitor treatment on Notch-target gene transcription also was investigated (FIGS. 2C and 2D). […] As proof of specificity, transcription of the housekeeping gene, HPRT, was unaltered in treated cells. To test the effects of Notch inhibition on proliferation, a colony formation assay was performed.
# To extend the analysis of tumor cell growth inhibition, several commonly used cancer cell lines were selected to test for sensitivity to Inhibitor No. 1-134-83 (FIGS. 3A and 3B). […] In this analysis, sensitivity to DAPT is taken to indicate specific inhibition of Notch activity. […] Cells that are refractory to DAPT were equally resistant to Inhibitor No. 1-134-83.
# RT-PCR analysis was performed using TaqMan probes according to manufacturer's instructions. In particular, 80 ng of RNA equivalent was used per reaction. Gene expression was normalized to the TATA-binding protein (“TBP”) gene. As a control, hypoxanthine phosphoribosyltransferase 1 (“HPRT”) gene expression was also monitored.
# [3] = molecular target: T1, NICD1 (Homo sapiens, UniProt P46531); test: Surface plasmon resonance binding to immobilized NICD; details: SPR, equilibrium response fitted to 1:1 binding model
# T1 construct: the intracellular domain of Notch (“NICD”)
# T1 sequence (P46531 1754-2555 limits assumed): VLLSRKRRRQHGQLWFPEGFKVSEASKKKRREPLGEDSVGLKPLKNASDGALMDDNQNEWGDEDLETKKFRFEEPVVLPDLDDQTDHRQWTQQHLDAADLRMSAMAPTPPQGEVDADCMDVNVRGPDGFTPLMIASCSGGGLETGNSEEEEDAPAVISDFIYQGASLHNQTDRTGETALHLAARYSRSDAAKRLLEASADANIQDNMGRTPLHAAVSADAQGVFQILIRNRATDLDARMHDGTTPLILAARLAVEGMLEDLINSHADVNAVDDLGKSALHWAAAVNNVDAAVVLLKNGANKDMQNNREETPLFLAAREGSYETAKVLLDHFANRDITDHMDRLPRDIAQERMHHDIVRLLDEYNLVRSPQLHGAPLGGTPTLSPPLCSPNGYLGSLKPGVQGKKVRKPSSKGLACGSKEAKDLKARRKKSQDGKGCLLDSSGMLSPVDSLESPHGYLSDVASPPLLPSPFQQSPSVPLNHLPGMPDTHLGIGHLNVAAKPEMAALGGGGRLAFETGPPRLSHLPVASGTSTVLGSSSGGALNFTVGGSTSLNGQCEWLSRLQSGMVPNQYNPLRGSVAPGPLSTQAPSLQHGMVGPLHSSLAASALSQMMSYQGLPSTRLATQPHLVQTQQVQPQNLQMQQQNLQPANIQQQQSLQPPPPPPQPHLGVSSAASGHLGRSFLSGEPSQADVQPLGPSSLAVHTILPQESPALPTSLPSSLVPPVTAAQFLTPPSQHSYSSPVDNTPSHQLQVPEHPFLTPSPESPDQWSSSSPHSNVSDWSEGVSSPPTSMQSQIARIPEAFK
# Description: (§1) The inhibitors described herein were subjected to surface plasmon resonance (“SPR”) to determine their binding constants to the NICD and CSL components of the NTC. In particular, the target protein (NICD1) was immobilized on the dextran surface of the SPR sensor chip. Through a microflow system, a solution with the inhibitor was injected over the immobilized protein layer. The inhibitor bound to the immobilized protein, which led to an increase in SPR signal, indicating association of the ligand to the target protein. After 45 seconds, buffer solution was injected on the microfluidics that dissociated the bound complex between the ligand and the inhibitor. As the inhibitor dissociated from the ligand, a decrease in SPR signal was observed. The equilibrium dissociation constant KD was determined by plotting the equilibrium response (Req) as a function of the concentration of the ligand, and fitting the data to a 1:1 binding model. The results are listed in […].
# [4] = system: Notch-dependent somite formation; test: Zebrafish somite formation; format: in vivo, D. rerio; details: embryos soaked in 40 μM from 8 hPF, scored at 13 hPF
# From the text: The in vivo effects of the inhibitors of the disclosure also were investigated using D. rerio. Notch signaling plays a role in somite formation in developing vertebrate embryos. Changes in levels of Notch signaling (either increased or decreased) during development of the zebrafish embryo result in disruption of the symmetric, bilaterally formed somites, which can be readily observed. Thus, disruption of somitogenesis in zebrafish represents a convenient dose-sensitive readout for Notch pathway stimulation or inhibition. When 100 pg of mNotch1 was injected in mRNA, defects in somitogenesis in 90% of the embryos resulted (compared to 0% disrupted embryos in the control group) (FIG. 5). […] Disruption of somite formation was not observed, however, when embryos were soaked in vehicle control (DMSO). […] On three separate days, multiple clutches of embryos from two or more breeding pairs of the AB wild type line were combined and incubated at 28.5° C. for 8 hours in E3 medium with 0.1% (w/v) methylene blue. The embryos were then placed into fresh E3 medium with 0.1% (w/v) methylene blue containing 50 μM DMSO, 40 μM compound 1-134-83, or nothing. […] At 13 hours post fertilization, samples were collected and scored for the presence of discrete somite boarders on a Zeiss Stemi 2000-CS scope. Data was analyzed using Fisher's exact test in R3.1.0. […]
# [5] = molecular target: CSL (Homo sapiens, UniProt Q06330); test: Surface plasmon resonance binding to CSL; details: SPR, equilibrium response fitted to 1:1 binding model
# CSL, sequence (Q06330 whole entry): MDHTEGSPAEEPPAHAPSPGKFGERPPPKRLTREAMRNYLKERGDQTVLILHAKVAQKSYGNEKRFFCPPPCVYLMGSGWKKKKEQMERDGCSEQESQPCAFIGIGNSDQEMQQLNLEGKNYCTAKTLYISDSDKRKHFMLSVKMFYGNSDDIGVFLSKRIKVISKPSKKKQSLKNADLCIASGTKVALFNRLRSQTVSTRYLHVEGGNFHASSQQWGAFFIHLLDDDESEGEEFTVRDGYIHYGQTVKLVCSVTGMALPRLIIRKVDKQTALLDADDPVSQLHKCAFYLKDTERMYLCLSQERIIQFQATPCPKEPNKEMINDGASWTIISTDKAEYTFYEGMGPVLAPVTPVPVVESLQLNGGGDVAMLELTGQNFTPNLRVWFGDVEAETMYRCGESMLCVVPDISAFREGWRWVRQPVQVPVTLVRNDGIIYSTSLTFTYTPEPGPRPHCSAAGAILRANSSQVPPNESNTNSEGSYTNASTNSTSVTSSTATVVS
# Description: as §1
smiles,measurement,setting,value
CCOC(=O)COc1ccc(/C=C2\SC(=S)NC2=O)cc1OC [1-134-83],occupancy of MAML1 on the HES1 promoter,[1],decreased the occupancy
same,occupancy of NOTCH1 on the HES1 promoter,[1],did not affect
same,Notch target gene transcription,"[2]; OE33 and 786-0 cells, qPCR",dose-dependent decrease
same,transcription of control gene HPRT,"[2]; OE33 and 786-0 cells, qPCR",unaltered
same,Notch target gene transcription,"[2]; insensitive cancer cell lines of the panel, 48 hrs",do not show a statistically significant reduction
same,Notch target gene transcription,"[2]; sensitive cancer cell lines of the panel, 48 hrs, DAPT 10, 1-134-83 15 and 25 μM",significantly reduced
same,Kd,[3],11 ± 3 µM
same,somite formation in embryos,[4],disrupted somites
same,Kd,[5],8 ± 2 µM
